According to patent publication US20240156790A1, “COMPOUNDS, COMPOSITIONS, AND METHODS FOR MODULATING FERROPTOSIS AND TREATING EXCITOTOXIC DISORDERS” (THE TRUSTEES OF COLUMBIA UNIVERSITY IN THE CITY OF NEW YORK, priority 2018, published 2024):
Entries after “also recorded” stand apart in the source; their conditions may differ. Where two headings read alike, the source gives them in different places. Values belong to the compound of their own block, whether it stands above or below them.

Legend:
HT-1080 cells [1] = assay: Rescue activity of selected Fer-1 analogs, dose-response in HT-1080 cells (cell titer glo); assay type: cell-based; conditions: for potency compared, in words: 0.2 μM RSL3, 10 μM erastin; for IC50: Homo sapiens, HT-1080, range 10 μM-0 μM, 48 hours; for toxicity (overall drop in viability): at 10 μM compound
Experimental: Selected Fer-1 analogs containing a pyridine moiety (FIG. 4) were tested to examine their efficacy and overall potency in inhibiting ferroptosis. For each of these compounds, dose-response curves were generated in HT-1080 cells looking at the effectiveness of the molecules in inhibiting ferroptosis induced by either 3 μM IKE or 0.2 μM RSL3, Fer-1 was used as a positive control. For each dose-response curve, 1,000 cells/well were seeded in a 384 well plate and allowed to adhere overnight prior to treating with compound from a daughter plate. Cells were treated for 48 hours, unless otherwise noted, prior to viability being analyzed using cell titer glo (40 μL per well). All liquid handling was performed using the BioMek. All samples were prepared in triplicate, unless otherwise noted.

[2] = Microsomal stability, mouse liver microsomes (Table 1); assay type: in vitro ADME, Mouse: CD1; conditions: for half-life: liver microsomes; for average % remaining after 120 minutes: compounds with t1/2 > 120 min, in parentheses
Experimental: Each compound (1 μM) is incubated with mouse plasma, for 4 hours at 37° C., with shaking at 100 rpm. The concentration of compound in the buffer and plasma chambers is determined using LC-MS/MS. Metabolism of each compound is predicted using Sites of Metabolism (Schrodinger Suite), which combines intrinsic reactivity analysis (Hammett-Taft) with induced fit docking against 2C9, 2D6 and 3A4. This approach identifies 90% of known metabolism sites and has a false positive rate of 17%. The in vitro metabolic stability of each compound in mouse liver microsomes is determined. Pooled mouse liver microsomes are prepared and stored at −80° C. until needed. […]

HT-1080 cells [3] = assay: Rescue activity of Fer-1 analogs: inhibition of erastin-, IKE- or RSL3-induced death (Alamar Blue viability); assay type: cell-based; conditions: Homo sapiens
Experimental: HT-1080 cells are cultured in DMEM containing 10% fetal bovine serum, 1% supplemented non-essential amino acids and 1% pen/strep mixture (Gibco) and maintained in a humidified environment at 37° C. with 5% CO2 in a tissue culture incubator. 1,000 HT-1080 cells are seeded per well in duplicate 384-well plates (Corning) using a BioMek FX liquid handling robot (Beckman Coulter). The next day, the medium is replaced with 36 μL of medium containing 10 μM erastin with 4 μL of medium containing a dilution series (previously prepared) of DMSO, Fer-1 (positive control) or Fer-1 analogs. […] Cells are incubated a further 6 hours and then the Alamar Blue fluorescence intensity recorded using a Victor 3 platereader (PerkinElmer)(ex/em 530/590). All experiments are performed at least twice and the background (no cells)-subtracted Alamar Blue values for each combination are averaged between replicates. The same procedure was repeated by replacing erastin (10 μM) with IKE (3 μM) or RSL3 (0.2 μM).

HT-1080 cells [4] = assay: Cell viability assays in HT-1080 cells, ferroptosis induced by IKE or RSL3 (Example 8); assay type: cell-based
Experimental: Cell culture assays were incubated at 37° C. with 5% CO2. HT-1080 cells were grown in DMEM (Corning) supplemented with 10% FBS (Life Technologies), 1% Penicillin-Streptomycin 10,000 U/mL (Gibco), and 1% MEM Non-Essential Amino Acids Solution 100× (Gibco). For cell viability assays, cells were trypsinized, counted, and seeded into 384-well white polypropylene plates at 1,000 cells/well, unless otherwise specified. After allowing cells to adhere overnight, compounds in DMSO stocks were arrayed in a 16-point dilution series prepared in a mother plate, and treated from a daughter plate, [DMSO]=0.28%. After 24 or 48 h, 50% CellTiter-Glo (Promega) 50% cell culture medium was added to each well and incubated at room temperature with shaking for 15 min. Luminescence was measured using a Victor X5 plate reader (PerkinElmer). All cell viability data were normalized to the DMSO vehicle condition. […] All 384w measurements were performed in triplicate
We first evaluated the efficacy of four pyridine analogs, TH-2-9-1, TH-2-31, TH-2-37-1, and TH-2-37-2, in suppressing ferroptosis induced by IKE and RSL3 in HT-1080 cells. […] We sought to determine whether incorporation of pyridine changed stability in mouse liver microsomes.

[5] = Microsomal Stability Assay (Examples 6 and 8); assay type: in vitro ADME, mouse; conditions: for microsomal stability / half-life, in words: assessed over two hours
Experimental: (§1) To a 96-well polypropylene plate was added phosphate buffer (182.2 μL, pH 7.4, 100 mM) followed by addition of NADPH-regenerating system solution A (10 μL), and NADPH regenerating system solution B (2 μL) (Corning Gentest 3P NADPH regenerating system solution A (#451220) and B (#451200)). A stock solution of analog (0.8 μL. 5 mM) or fer-1 (positive control) was added and the mixture was warmed to 37° C. for 5 min. Mouse microsomes (CD-1, 20 mg/mL, Life Technologies) (5 μL, thawed in 37° C. water bath before use) were added. The resulting reaction mixture was kept at 37° C. with gentle agitation for the duration of the experiment. At selected time points (0, 1, 5, 10, 20, 30, 60 and 120 min) aliquots (15 μL) were withdrawn from the plate and quenched upon addition to cold methanol (60 μL), containing an internal standard (5 μM) in a separate 96-well polypropylene plate. At the completion of the final time-point, the samples were centrifuged at 4,000 rpm for 5 min at 4° C. The supernatant (40 μL) was withdrawn and transferred to a sample vial with insert. The samples were analyzed by LC-MS. LC-MS analysis was performed on a platform comprising a Thermo Scientific Dionex Ultimate 3000 and a Bruker amaZon SL equipped with an electrospray ionization source controlled by Bruker Hystar 3.2. Chromatographic separation was performed by injecting 5 μL of the sample onto an Agilent Eclipse Plus C18 column (2.1×50 mm, 3.5 μm) maintained at 20° C. The flow rate was maintained at 400 μL/min. The initial flow conditions were 80% solvent A (water containing 0.1% acetic acid) and 20% solvent B (methanol containing 0.1% acetic acid). Solvent B was raised to 80% over 0.50 min by 1.50 min. Solvent B was raised to 100% by 5.00 min and held there for 3.25 min. […] All analogs were detected in positive mode as [M+H]*. The percent of compound remaining at each time-point was calculated as the ratio of the integrated compound peak over the internal standard peak and standardized to the t=0 time-point. Values were plotted in GraphPad Prism 9 and fit with a one phase decay.
as §1, with “and NADPH-regenerating” for “and NADPH regenerating”, “rpm (1872 g)” for “rpm”, “[M+H]*. […]” for “[M+H]*. The percent of compound remaining at each time-point was calculated as the ratio of the integrated compound peak over the internal standard peak and standardized to the t=0 time-point. Values were plotted in GraphPad Prism 9 and fit with a one phase decay.”

[6] = CD1, mouse, Mouse: CD1, read-out: Microsomal Stability t1/2
[7] = HT-1080, ^b 50% viability, HT-1080 treated with 3 μM IKE
[8] = HT-1080, ^c 50% viability, HT-1080 treated with 0.2 μM RSL3
[9] = HT-1080, ^a 50% viability, HT-1080 cells treated with 10 μM erastin
[10] = HT-1080, no footnote marker printed, inducer not stated

Structure (SMILES): Cc1noc(-c2cnc(NC3CCCCC3)c(NC3CCCCC3)c2)n1 [CFI-102]
potency compared, in words (HT-1080 cells [1]; 3 μM IKE): the most potent analog for both IKE an RSL3
IC50 (HT-1080 cells [1]; 0.2 μM RSL3, read-out: IC50 against RSL3): 10 to 20 nM
IC50 (HT-1080 cells [1]; 3 μM IKE, read-out: IC50 against IKE): 10 to 20 nM
toxicity (overall drop in viability) (HT-1080 cells [1]): appeared to be toxic
concentration achieving full rescue (HT-1080 cells [1]; starting concentration 5 μM, treated 51 hours, IKE and RSL3): around 0.0001 μM
half-life [2, 6]: 0.5 to 1 h
EC50 (HT-1080 cells [3]; [7]): 0.9 nM
EC50 (HT-1080 cells [3]; [8]): 0.9 nM

half-life [2, 6]: 0.503 to 0.54 h
Structure (SMILES): Cc1noc(-c2ccc(NC34CC5CC(CC(C5)C3)C4)c(N)c2)n1 [CFI-4066]
EC50 (HT-1080 cells [3]; [9]): 123 nM

Microsomal Stability t1/2 ([2]; Mouse: CD1): Mouse: >120 min
Structure (SMILES): CCCCCCNc1cc(C(=O)OC(C)(C)C)c(F)cc1NC12CC3CC(CC(C3)C1)C2 [CFI-A8]
average % remaining after 120 minutes ([2]; Mouse: CD1): min (76.4%) Human: TBD Rat: TBD Dog: Pig: TBD
EC50 (HT-1080 cells [3]; [7]): 20 nM
EC50 (HT-1080 cells [3]; [8]): 19 nM

Microsomal Stability t1/2 ([2]; Mouse: CD1): Mouse: >120 min
Structure (SMILES): CCCCCCNc1cc(C(=O)OC(C)(C)C)c(C)cc1NC12CC3CC(CC(C3)C1)C2 [CFI-A9]
average % remaining after 120 minutes ([2]; Mouse: CD1): min (83.6%) Human: TBD Rat: TBD Dog Pig: TBD
EC50 (HT-1080 cells [3]; [9]): 65 nM

half-life ([2]; CD1 (mouse), mouse, human, in either mouse or human liver microsomes, read-out: T1/2): > 2 h
half-life [2, 6]: > 2 h
Structure (SMILES): CC(C)(C)OC(=O)c1ccc(NC2CCCCC2)c(NC23CC4CC(CC(C4)C2)C3)c1 [CFI-L034]
average % remaining after 120 minutes ([2]; Mouse: CD1): min (60.2%) Human: TBD Rat: TBD Dog: Pig: TBD
EC50 (HT-1080 cells [3]; [10]): 166 nM

Microsomal Stability t1/2 ([2]; Mouse: CD1): Mouse: 10 min
Structure (SMILES): C=C/C=C(/CN/C(=C/C(=C\C)C(=O)OCC)CNC(CC)CCC)C(=C)O (stereo not drawn) [CFI-M82]

microsomal stability / half-life, in words [5]: half-lives greater than two hours
Structure (SMILES): CC(C)(C)OC(=O)c1ccc(NC23CC4CC(CC(C4)C2)C3)c(NC2CCCCC2)c1 [DL032, tert-butyl 4-(((3s,5s,7s)-adamantan-1-yl)amino)-3-(cyclohexylamino)benzoate]
potency relative to fer-1 at suppressing ferroptosis, in words (HT-1080 cells [4]): more potent than fer-1

microsomal stability / half-life, in words [5]: half-lives greater than two hours
Structure (SMILES): CC(C)(C)OC(=O)c1ccc(NC2CCCCC2)c(NC23CC4CC(CC(C4)C2)C3)c1 [DL034, tert-butyl 3-(((3s,5s,7s)-adamantan-1-yl)amino)-4-(cyclohexylamino)benzoate]
potency relative to fer-1 at suppressing ferroptosis, in words (HT-1080 cells [4]): less potent than fer-1

microsomal stability / half-life, in words [5]: half-lives greater than two hours
Structure (SMILES): Cc1cccc(C)c1CNc1cc(C(=O)OC(C)(C)C)ccc1NC12CC3CC(CC(C3)C1)C2 [DL047, tert-butyl 4-(((3s,5s,7s)-adamantan-1-yl)amino)-3-((2,6-dimethylbenzyl)amino)benzoate]
potency relative to fer-1 at suppressing ferroptosis, in words (HT-1080 cells [4]): less potent than fer-1

half-life at 20 µM ([5]; CD-1, mouse, liver microsomes, pH 7.4, text, read-out: half-life in mouse liver microsomes): < 1 h
microsomal stability / half-life, in words [5]: the least stable compound
Structure (SMILES): Nc1cc(-c2ncco2)ccc1NC1CCCCC1 [PHB4051, N1-cyclohexyl-4-(oxazol-2-yl)benzene-1,2-diamine]
potency relative to fer-1 at suppressing ferroptosis, in words (HT-1080 cells [4]): more potent than fer-1

microsomal stability / half-life, in words [5]: half-lives greater than two hours
Structure (SMILES): Cc1noc(-c2ccc(NC34CC5CC(CC(C5)C3)C4)c(NC3CCCCC3)c2)n1 [PHB4083, N1-((3s,5s,7s)-adamantan-1-yl)-N2-cyclohexyl-4-(3-methyl-1,2,4-oxadiazol-5-yl)benzene-1,2-diamine]
potency relative to fer-1 at suppressing ferroptosis, in words (HT-1080 cells [4]): more potent than fer-1

Structure (SMILES): COc1cnc(NC2CCCCC2)c(N)c1 [TH-2-5, N^2-cyclohexyl-5-methoxypyridine-2,3-diamine]
death observed with RSL3 (HT-1080 cells [1]; 0.2 μM RSL3, inhibitor range 10 μM-0 μM): No death was observed
EC50 (HT-1080 cells [3]; [10]): > 350 nM

Structure (SMILES): Cc1noc(-c2cnc(NC3CCCCC3)c(N)c2)n1 [TH-2-30]
potency compared, in words (HT-1080 cells [1]; 3 μM IKE): relatively less potent; also recorded: potency comparable to Fer-1 against IKE and RSL3
toxicity (overall drop in viability) (HT-1080 cells [1]): appeared to be toxic
EC50 (HT-1080 cells [3]; [7]): 461 nM
EC50 (HT-1080 cells [3]; [8]): 118 nM
